Measurements reported in patent publication US6878732B2, “NK1 antagonists” (Schering Corporation, priority 2002, dated 2005).
Several values for one entry are separate records, joined by “and”; a condition that tells them apart may be missing. Equal values may be shown once.

Target: NK1 receptor (Homo sapiens, UniProt P25103)
Assay: NK1 receptor binding: inhibition of Substance P binding, Ki by the Chang-Prusoff equation
Settings: inhibition constant from the concentration giving 50% inhibition of binding; procedure of Duffy et al.
Source text: The percent of MSB is defined by the following equation, wherein “dpm” represents “disintegrations per minute”: [formula]

Sequence of NK1 receptor (P25103 whole entry, species assumed): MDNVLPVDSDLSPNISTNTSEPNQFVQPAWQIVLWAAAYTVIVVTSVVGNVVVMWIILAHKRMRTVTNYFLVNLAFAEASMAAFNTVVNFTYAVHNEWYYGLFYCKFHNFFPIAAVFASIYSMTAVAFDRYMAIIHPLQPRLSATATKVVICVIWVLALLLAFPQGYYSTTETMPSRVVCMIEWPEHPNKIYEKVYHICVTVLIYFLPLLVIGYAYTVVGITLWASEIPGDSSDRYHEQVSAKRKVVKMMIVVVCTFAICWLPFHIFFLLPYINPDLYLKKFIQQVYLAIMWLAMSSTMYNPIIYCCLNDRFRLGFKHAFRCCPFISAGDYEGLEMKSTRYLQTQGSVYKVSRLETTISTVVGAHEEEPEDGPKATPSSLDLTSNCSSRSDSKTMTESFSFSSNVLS

| SMILES | Ki |
| --- | --- |
| CNC(=O)[C@]1(N)C[C@@](CO[C@H](C)c2cc(C(F)(F)F)cc(C(F)(F)F)c2)(c2ccccc2)C1 [Example 27] | 0.13 to 1.78 nM |
| C[C@@H](OC[C@]1(c2ccccc2)C[C@]2(C1)NC(=O)NC2=O)c1cc(C(F)(F)F)cc(C(F)(F)F)c1 [Example 11a] | 0.13 to 1.78 nM |
| C[C@@H](OC[C@]1(c2ccccc2)C[C@@]2(C1)NC(=O)NC2=O)c1cc(C(F)(F)F)cc(C(F)(F)F)c1 [Example 11b] | 0.13 to 1.78 nM |
| C[C@@H](OC[C@]1(c2ccccc2)C[C@]2(C1)NCNC2=O)c1cc(C(F)(F)F)cc(C(F)(F)F)c1 [Example 49] | 0.13 to 1.78 nM and 0.2 nM |
| C[C@@H](OC[C@]1(c2ccccc2)C[C@@]2(CNC(=O)N2)C1)c1cc(C(F)(F)F)cc(C(F)(F)F)c1 [Example 12b] | 0.13 to 1.78 nM |
| C[C@@H](OC[C@]1(c2ccccc2)C[C@]2(C1)N=CNC2=O)c1cc(C(F)(F)F)cc(C(F)(F)F)c1 [Example 46] | 0.13 to 1.78 nM |
| C[C@@H](OC[C@]1(c2ccccc2)C[C@](N)(C(N)=O)C1)c1cc(C(F)(F)F)cc(C(F)(F)F)c1 [Example 28] | 0.13 to 1.78 nM |
